Experimental data taken from US20250236596A1, “HYDROXYLAMINE-BASED EGFR INHIBITORS FOR TREATMENT OF CANCER WITH BRAIN METASTASES” (University of Georgia Research Foundation, Inc., priority 2022, published 2025).

How the values were obtained:
CYP3A4 = CYP3A4 (Homo sapiens, UniProt P08684); experiment: Human CYP450 inhibition in human liver microsomes, CYP3A4; format: in vitro ADME; settings: pooled human liver microsomes, probe midazolam (1 μM), 1′-hydroxylation
Method: (§1) Assessment of compound 15 was carried out at Pharmaron Inc. for its potential to inhibit cytochrome P450 (CYP) isoforms using human liver microsomes. The activities tested were CYP1A2-mediated phenacetin O-demethylation, CYP2C19-mediated (S)-mephenytoin 4′-hydroxylation, CYP2C9-mediated diclofenac 4′-hydroxylation, CYP2D6-mediated dextromethorphan O-demethylation and CYP3A4-mediated midazolam 1′-hydroxylation. Concentrations of substrates were phenacetin (40 μM), mephenytoin (50 μM), diclofenac (6 μM), dextromethorphan (2 μM) and midazolam (1 μM). Probe substrates phenacetin, mephenytoin and dextromethorphan were incubated at 37° for 20 min. Probe substrates diclofenac and midazolam were incubated at 37° for 5 min. […] The reactions were initiated by adding NADPH (1 mM final concentration) after a 5 min-preincubation and the assay was ran in duplicate (n=2). Samples were analyzed by UPLC-MS/MS.

CYP2C19 = CYP2C19 (Homo sapiens, UniProt P33261); experiment: Human CYP450 inhibition in human liver microsomes, CYP2C19; format: in vitro ADME; settings: pooled human liver microsomes, probe (S)-mephenytoin (50 μM), 4′-hydroxylation
Method: as §1

HER2 = biological target: T1, HER2 (Homo sapiens, UniProt P04626); experiment: Follow-up KdELECT binding, HER2
T1 construct: purchased Eurofins DiscoverX (contract assay, KINOMEScan KdELECT)
Method: In vitro kinase activity (inhibitor binding constants (Kd) and biochemical inhibition (IC50's)) were assessed by Eurofins DiscoverX (Kd determinations) and Eurofins Cerep (biochemical IC50 determinations).

[1] = tested on: HCC827-luc intracranial tumor; experiment: Intracranial PDX model with luciferase-tagged HCC827 cells; format: in vivo, BALB/c nude mice; settings: 10 mg/kg PO b.i.d
Method: Animal experiments were performed at Pharmaron Inc. and animal use was approved by Pharmaron's Institutional Animal Care and Use Committee (IACUC) in Pharmaron (Pharmaron IACUC, Protocol #PK-M-07182022, #PK-R-06012022 and #ON-CELL-XEN-06012022) following the guidance of AAALAC. Six- to eight-week-old male SD rats (approximately 200-300 g) obtained from Si Bei Fu Laboratory Animal Technology Co., six- to eight-week-old male CD1 mice (approximately 20-30 g) obtained from Si Bei Fu Laboratory Animal Technology Co., and six- to eight-week-old female BALB/c nude mice (approximately 20-30 g) obtained from Si Bei Fu Laboratory Animal Technology Co., were used in the pharmacokinetic studies. Six- to eight-week-old female BALB/c nude mice (approximately 18-22 g) obtained from Beijing Anikeeper Biotech Co., Ltd were used in the intracranial PDX study. Animals were housed at 20-25° C. with humidity ranging from 40-70% relative humidity, were exposed to 12 h light and dark cycles, and were supplied with food and water ab libitum.
HCC827 cells stably expressing luciferase (HCC827-luc) were injected intracranially. Briefly, 3×10^5 HCC827-luc tumor cells suspended in 2 μL RPMI1640 medium were injected into the right forebrain of anesthetized mice (anesthetic: intramuscular injection of Zoletl™ 50 (Virbac S.A)). Mice were imaged bi-weekly using IVIS Lumina Ill (Perkin Elmer). Images were acquired 10 min post intraperitoneal (IP) injection with 15 mg/mL (at 5 μL/g body weight) of D-luciferin in anesthetized mice (anesthetic: 1-2% isoflurane inhalation). On day 20 post-cellular inoculation, mice were randomized into 2 treatment groups (n=10 mice per group): 1) 1% methylcellulose as vehicle control and 2) 15 (10 mg/kg) (formulation: 1% methylcellulose), PO, b.i.d. (twice daily) dosing (12 h intervals)×7 days for 21 days. […] Body weights of all mice were measured bi-weekly throughout the study and BW change, expressed in % was calculated using the following formula.
BW change (%)=(BWDay X/BWDay 0)×100
Where, BWDay X is the BW on a given day, and BWDay 0 is BW on Day 0 (initiation of treatment). […]

CYP3A4, sequence (P08684 whole entry, canonical isoform): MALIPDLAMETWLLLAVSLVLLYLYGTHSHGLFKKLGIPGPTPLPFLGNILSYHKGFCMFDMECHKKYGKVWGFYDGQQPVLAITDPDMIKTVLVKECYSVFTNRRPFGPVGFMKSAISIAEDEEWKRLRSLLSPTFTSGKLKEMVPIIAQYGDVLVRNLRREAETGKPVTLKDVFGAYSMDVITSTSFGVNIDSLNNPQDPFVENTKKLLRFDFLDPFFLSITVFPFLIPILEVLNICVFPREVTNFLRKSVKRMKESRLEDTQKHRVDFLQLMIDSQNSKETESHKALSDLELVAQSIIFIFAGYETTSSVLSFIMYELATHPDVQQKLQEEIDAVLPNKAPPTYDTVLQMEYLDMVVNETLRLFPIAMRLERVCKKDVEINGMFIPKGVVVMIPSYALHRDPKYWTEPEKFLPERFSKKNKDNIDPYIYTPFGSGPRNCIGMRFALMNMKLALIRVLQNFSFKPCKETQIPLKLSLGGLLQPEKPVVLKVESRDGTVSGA
CYP2C19, sequence (P33261 whole entry): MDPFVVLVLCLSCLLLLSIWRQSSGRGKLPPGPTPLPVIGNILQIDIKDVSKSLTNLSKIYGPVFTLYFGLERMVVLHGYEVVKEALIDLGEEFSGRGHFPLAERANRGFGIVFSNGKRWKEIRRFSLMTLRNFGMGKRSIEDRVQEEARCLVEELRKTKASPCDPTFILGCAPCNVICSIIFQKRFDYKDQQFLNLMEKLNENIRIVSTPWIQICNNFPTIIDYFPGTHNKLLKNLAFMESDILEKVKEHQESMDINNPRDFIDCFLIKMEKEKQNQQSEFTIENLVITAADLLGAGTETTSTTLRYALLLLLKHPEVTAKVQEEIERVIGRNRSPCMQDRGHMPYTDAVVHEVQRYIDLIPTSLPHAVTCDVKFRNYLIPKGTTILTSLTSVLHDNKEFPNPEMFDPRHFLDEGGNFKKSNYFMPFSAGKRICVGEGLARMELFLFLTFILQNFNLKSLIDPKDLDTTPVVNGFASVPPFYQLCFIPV
T1 sequence (P04626 23-1255): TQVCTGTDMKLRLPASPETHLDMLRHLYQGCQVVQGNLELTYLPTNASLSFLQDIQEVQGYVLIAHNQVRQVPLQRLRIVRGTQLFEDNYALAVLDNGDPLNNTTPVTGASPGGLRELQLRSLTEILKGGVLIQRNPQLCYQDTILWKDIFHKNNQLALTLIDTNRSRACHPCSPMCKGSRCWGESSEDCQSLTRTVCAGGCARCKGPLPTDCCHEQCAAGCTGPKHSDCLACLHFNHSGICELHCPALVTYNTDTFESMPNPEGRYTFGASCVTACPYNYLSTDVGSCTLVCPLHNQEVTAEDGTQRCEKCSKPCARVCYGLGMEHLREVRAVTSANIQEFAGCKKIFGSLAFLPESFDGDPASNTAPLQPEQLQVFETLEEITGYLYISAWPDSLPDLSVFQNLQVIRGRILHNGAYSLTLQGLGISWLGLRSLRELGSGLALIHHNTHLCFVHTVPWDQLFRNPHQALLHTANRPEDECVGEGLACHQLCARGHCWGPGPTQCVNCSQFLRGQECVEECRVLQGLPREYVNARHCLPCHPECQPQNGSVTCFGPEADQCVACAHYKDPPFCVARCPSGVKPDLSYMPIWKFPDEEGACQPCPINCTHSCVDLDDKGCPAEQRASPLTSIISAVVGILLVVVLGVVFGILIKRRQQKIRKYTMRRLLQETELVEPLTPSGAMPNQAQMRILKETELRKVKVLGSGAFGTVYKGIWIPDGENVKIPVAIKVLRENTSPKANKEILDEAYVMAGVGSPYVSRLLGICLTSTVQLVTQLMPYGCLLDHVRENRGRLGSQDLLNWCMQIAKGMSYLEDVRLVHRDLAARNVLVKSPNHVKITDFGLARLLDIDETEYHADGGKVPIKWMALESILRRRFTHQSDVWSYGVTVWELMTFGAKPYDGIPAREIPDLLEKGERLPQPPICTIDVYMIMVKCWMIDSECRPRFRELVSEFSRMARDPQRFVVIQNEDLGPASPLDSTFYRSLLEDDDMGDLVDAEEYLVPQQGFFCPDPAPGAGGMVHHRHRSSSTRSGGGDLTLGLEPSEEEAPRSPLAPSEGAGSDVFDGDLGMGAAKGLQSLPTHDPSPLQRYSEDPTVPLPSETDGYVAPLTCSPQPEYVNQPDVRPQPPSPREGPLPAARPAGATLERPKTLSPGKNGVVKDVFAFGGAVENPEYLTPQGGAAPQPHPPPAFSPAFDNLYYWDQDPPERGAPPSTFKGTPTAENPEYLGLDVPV

Q: Which results are given for COc1cc2ncnc(Nc3cccc(Cl)c3F)c2cc1OCCON1CCN(C)CC1 [Compound 15, N-(3-chloro-2-fluorophenyl)-7-methoxy-6-(2-((4-methylpiperazin-1-yl)oxy)ethoxy)quinazolin-4-amine]?
A: IC50 at 5 min (CYP3A4): > 30 µM; IC50 at 20 min (CYP2C19): > 30 µM; Kd (HER2): 0.021 µM; mean body weight loss ([1]; 21-day treatment window): ≤ 10%; adverse clinical events ([1]; 21 days): no adverse clinical events; intracranial tumor response (bioluminescence) relative to vehicle control ([1]; 21 days, P=0.0059): profound tumor regression
